Results on 15 compounds are retold here after US20100256086A1, “NON-HYDROLYZABLE NUCLEOSIDE DI- OR TRI-PHOSPHATE DERIVATIVES AND USES THEREOF” (priority 2007, published 2010).

The test system of data set [1] is perfused rat pancreas. The note with it: cited from earlier work.
In data set [2] the target is T1, turkey P2Y1 (Meleagris gallopavo, UniProt P49652).
T1 construct: expressed in transfected cells
As to the kind of experiment: Intracellular calcium measurement ([Ca2+]i, fura-2) in 1321N1 astrocytoma cells. Format: cell-based. As to conditions: for activities at the P2YRs tested: P2Y1, P2Y2, P2Y4 and P2Y6 tested; for EC50: human 1321N1 astrocytoma cells expressing turkey P2Y1, read-out: Compound-induced activation of [Ca2+] EC50, P2Y1. Here is the method:
(§1) Human 1321N1 astrocytoma cells stably expressing the turkey P2Y1, human P2Y2, human P2Y4 or rat P2Y6 were grown in Dulbecco's modified Eagle's medium containing 5% (v/v) fetal bovine serum, 100 units/ml penicillin, 100 μg/ml streptomycin and 500 μg/ml Geneticin (G-418, Life Technologies, Inc). Changes in the intracellular free calcium concentration, [Ca^2+]i were detected by dual-excitation spectrofluorometric analysis of cell suspensions loaded with fura-2, as previously described (Garrad et al., 1998; Grynkiewicz et al., 1985). Cells were assayed in 10 mM Hepes-buffered saline (pH 7.4) containing 1 mM CaCl2 and 1 mM MgCl2. The cells were pelleted in a microfuge and resuspended in 2 ml of buffer. Concentration-response data were analyzed with the Prism curve fitting program (GraphPAD Software, San Diego, Calif.). Three experiments were conducted on separate days for each P2Y receptor subtype.
(§2) The activities of compounds 2, 4B, 17, 18, 19A, 21 (isomers A and B) were examined at the G protein-coupled P2YRs, P2Y1, P2Y2, P2Y4 and P2Y6 expressed in human 1321N1 astrocytoma cells, based on intracellular calcium measurements, as described in Experimental above. In particular, the activity of compound 2, 4B and 19 was examined at P2Y1R, P2Y2R, P2Y4R and P2Y6R, and the activity of compounds 17, 18 and 21 was examined at P2Y1R only. The experiments were conducted by Prof. Gary A. Weisman from Columbia-Missouri University, Columbia, Mo., USA.
(Calcium flux is commonly read through the fluorescence of an indicator in the cells.)

Data set [3] in a line: Stability in human blood serum, Method A. The format is in vitro ADME. As to conditions: human blood serum and RPMI-1640, 37° C. Here is the method:
(§3) Preparation of the Human Blood Serum: Blood Taken from Healthy Volunteers was obtained from a blood bank (Tel-Hashomer hospital, Israel), stored for 12 h at 4° C. and centrifuged in plastic tubes at 1500 g for 15 min at room temperature. The serum was separated and stored at −80° C.
The assay mixture, containing a 40 mM nucleotide derivative solution in deionized water (4.5 μl), human blood serum (180 μl) and RPMI-1640 (540 μl), was incubated at 37° C. for 1, 4, 8, 16, 24, 48, 72 and 96 h. The samples were then treated with 0.6 M of hydrochloric acid (430 μl), centrifuged for 2 min (13,000 g, 4° C.), neutralized by addition of 4 M of KOH, centrifuged for 2 min (13,000 g, 4° C.) and freeze-dried. The stability of the nucleotide was evaluated by HPLC for monitoring possible dephosphorylation products. The mixture was separated on a Gemini analytic column (5u C-18 110A, 150×4.60 mm) with gradient elution [0.01 M KH2PO4 pH=4.5 (A)/acetonitrile (B), 100:0→60:40, A:B, 20 min for 2, 3A and 3B; 100:0→95:5, A:B, 10 min for ATP] and flow rate of 1 ml/min. The hydrolysis rate was determined by measuring the change in the integration of the respective HPLC peaks with time.

The conditions of data set [4]: cited from earlier work.
For data set [5], the system named is ecto-nucleotidases. As to conditions: muscle strips preparations, 60 min incubation; cited from earlier work.
A short description of data set [6]: Stability in human blood serum, Method B. The format is in vitro ADME. The note with it: human blood serum and RPMI-1640, 37° C. On the procedure: as §3
The assay mixture, containing a 40 mM nucleotide derivative solution in deionized water (4.5 μl), human blood serum (180 μl) and RPMI-1640 (540 μl), was incubated at 37° C. for 1, 4, 8, 16, 24, 48, 72, 96, 120 and 144 h. The samples were then heated to 80° C. for 30 min, treated with CM Sephadex (1-2 mg) for 2 h, centrifuged for 6 min (12,000 rpm) and extracted with chloroform (2×500 μl). The aqueous layer was freeze-dried. The stability of the nucleotide was evaluated by HPLC for monitoring possible dephosphorylation products. The mixture was separated on a Gemini analytic column (5u C-18 110A, 150×4.60 mm) with gradient elution [100 mM TEAA, pH 7 (A)/MeOH (B), 79:21, A:B, 15 min for 4A and 4B; 100 mM TEAA, pH 7 (A)/acetonitryl (B), A:B, 10 min, 100:0→90:10 A:B 10 min, 90:10→80:20 A:B 4 min, 80:20 A:B 1 min for ATP] and flow rate of 1 ml/min. The hydrolysis rate was determined by measuring the change in the integration of the respective HPLC peaks with time.

Data set [7] is described as follows: pKa and degree of ionization of terminal phosphonate/phosphate. As to conditions: assay conditions, pH 7.4. Format: physicochemical.
Data set [8] has as its target T2, rat P2Y6 (Rattus norvegicus, UniProt Q63371).
T2 construct: expressed in transfected cells
The data set can be described thus: Intracellular calcium measurement ([Ca2+]i, fura-2) in 1321N1 astrocytoma cells. The format is cell-based. On the set-up: key to Compound-induced activation of [Ca2+], P2Y6, response class: sr = slight response at 100 μM; nr = no response. The note with it: for agonistic effect on P2Y6R: at 100 μM. On the procedure: as §1, §2

For data set [9], the target named is T3, human P2Y2 (Homo sapiens, UniProt P41231).
T3 construct: expressed in transfected cells
T3 sequence (P41231 whole entry): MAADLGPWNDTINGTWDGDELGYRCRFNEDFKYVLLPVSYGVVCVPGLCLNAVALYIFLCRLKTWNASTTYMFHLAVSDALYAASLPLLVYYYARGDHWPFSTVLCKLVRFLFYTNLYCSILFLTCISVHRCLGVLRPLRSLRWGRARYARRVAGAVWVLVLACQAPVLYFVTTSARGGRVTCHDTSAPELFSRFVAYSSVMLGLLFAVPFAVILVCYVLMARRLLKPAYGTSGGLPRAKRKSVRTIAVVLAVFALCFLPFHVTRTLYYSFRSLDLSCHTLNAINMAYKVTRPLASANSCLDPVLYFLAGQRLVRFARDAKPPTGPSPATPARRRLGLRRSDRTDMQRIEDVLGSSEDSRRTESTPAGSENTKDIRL
The data set is described as above. The format is cell-based. On the set-up: key to Compound-induced activation of [Ca2+], P2Y2, response class: sr = slight response at 100 μM; nr = no response. On the procedure:
as §1, §2

Data set [10] concerns the target T4, human P2Y4 (Homo sapiens, UniProt P51582).
T4 construct: expressed in transfected cells
Described as above. Format: cell-based. The note with it: 1321N1 cells expressing human P2Y4. On the set-up: key to Compound-induced activation of [Ca2+], P2Y4, response class: sr = slight response at 100 μM; nr = no response. On the procedure:
as §1, §2

The mark [11] stands for this setting: 1321N1 cells expressing rat P2Y6.
Where [12] appears, read: 1321N1 cells expressing human P2Y2.

T4 sequence (P51582 whole entry): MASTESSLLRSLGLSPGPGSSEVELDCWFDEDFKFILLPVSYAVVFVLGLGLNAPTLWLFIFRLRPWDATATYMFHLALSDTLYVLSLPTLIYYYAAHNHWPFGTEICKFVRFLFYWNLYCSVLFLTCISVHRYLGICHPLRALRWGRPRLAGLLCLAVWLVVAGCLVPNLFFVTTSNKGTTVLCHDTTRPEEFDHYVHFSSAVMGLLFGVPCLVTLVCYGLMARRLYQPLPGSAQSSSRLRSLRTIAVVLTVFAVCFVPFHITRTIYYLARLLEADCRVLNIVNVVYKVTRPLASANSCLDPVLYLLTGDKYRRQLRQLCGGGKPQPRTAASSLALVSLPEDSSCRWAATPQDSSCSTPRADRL
T2 sequence (Q63371 whole entry): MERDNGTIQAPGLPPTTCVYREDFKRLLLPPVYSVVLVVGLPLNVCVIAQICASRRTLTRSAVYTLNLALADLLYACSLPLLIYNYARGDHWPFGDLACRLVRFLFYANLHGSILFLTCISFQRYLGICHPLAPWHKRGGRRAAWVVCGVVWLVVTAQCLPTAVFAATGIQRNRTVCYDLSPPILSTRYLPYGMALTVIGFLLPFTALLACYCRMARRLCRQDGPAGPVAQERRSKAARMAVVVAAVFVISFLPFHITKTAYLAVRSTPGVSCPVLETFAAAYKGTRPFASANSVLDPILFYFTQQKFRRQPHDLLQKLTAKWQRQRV
T1 sequence (P49652 whole entry): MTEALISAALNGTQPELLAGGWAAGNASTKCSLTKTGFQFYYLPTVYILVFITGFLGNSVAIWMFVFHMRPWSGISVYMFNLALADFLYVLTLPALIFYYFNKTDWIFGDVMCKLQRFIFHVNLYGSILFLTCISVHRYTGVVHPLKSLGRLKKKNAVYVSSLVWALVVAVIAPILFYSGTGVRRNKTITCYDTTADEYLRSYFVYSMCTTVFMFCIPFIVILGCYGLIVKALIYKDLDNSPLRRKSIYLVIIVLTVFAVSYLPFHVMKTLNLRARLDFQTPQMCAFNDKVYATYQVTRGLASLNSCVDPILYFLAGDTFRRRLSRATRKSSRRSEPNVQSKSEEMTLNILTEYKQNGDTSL

Regarding 2-MeS-ATP-α-B [Compound 1], in data set [1], the “enhancement of insulin secretion as compared to basal secretion” value is given as 9 fold. Further, the half-maximal effective concentration (EC50) in [1] (read-out: EC50 of insulin secretion) is 28 nM.

Turning to `B[P@](=O)(OC[C@H]1O[C@@H](n2cnc3c(N)ncnc32)[C@H](O)[C@@H]1O)OP(=O)(O)CP(=O)(O)O` (single isomer, unassigned) [Compound 3A, Adenosine-β,γ-CH2-5′-O-(1-boranotriphosphate)], in data set [2], the “activity at P2Y1R, in words” value was “practically inactive” and the “activities at the P2YRs tested” value is given as “insignificant activities”. In addition, the “half-life in human blood serum” value in data set [3] came out at 14.1 h.

For the compound `BP(=O)(OC[C@H]1O[C@@H](n2cnc3c(N)nc(SC)nc32)[C@H](O)[C@@H]1O)OP(=O)(O)C(Cl)(Cl)P(=O)(O)O` (single isomer, unassigned) [Compound 21, 2MeS-adenosine-β,γ-CCl2-5′-O-(1-boranotriphosphate)], the “pKa value of the terminal phosphonate” value in data set [4] is listed as “about 6.7”.

With `BP(=O)(OC[C@H]1O[C@@H](n2cnc3c(N)nc(SC)nc32)[C@H](O)[C@@H]1O)OP(=O)(O)C(Cl)(Cl)P(=O)(O)O` (single isomer, unassigned) [Compound 21A, 2MeS-adenosine-β,γ-CCl2-5′-O-(1-boranotriphosphate)], the EC50 in [2] came to 570 nM.

In the case of `BP(=O)(OC[C@H]1O[C@@H](n2cnc3c(N)nc(SC)nc32)[C@H](O)[C@@H]1O)OP(=O)(O)C(Cl)(Cl)P(=O)(O)O` (single isomer, unassigned) [Compound 21B, 2MeS-adenosine-β,γ-CCl2-5′-O-(1-boranotriphosphate)], the 50% effective concentration (EC50) in data set [2] was determined as 1200 nM.

In the case of `Nc1ncnc2c1ncn2[C@@H]1O[C@H](COP(=O)(O)OP(=O)(O)OP(=O)(O)O)[C@@H](O)[C@H]1O` [ATP, reference compound], the “half-life in human blood serum” value is given as 3.6 h in data set [3] and 7.7 h in data set [6]. Further, the degradation by ecto-nucleotidases result in [5] was “completely dephosphorylated”.

With `CSc1nc(N)c2ncn(C3OC(COP(=O)(O)OP(=O)(O)CP(=O)(O)O)C(O)C3O)c2n1` (stereo not drawn) [Compound 2, β,γ-CH2-2MeS-adenosine-5′-triphosphate], the fraction ionized in data set [7] was 9%. Further, the “Compound-induced activation of [Ca2+], P2Y6, response class” value in [8] (setting [11]) is reported as “sr”. In addition, in data set [8], the “agonistic effect on P2Y6R” value was “slight agonistic effect”. Moreover, the EC50 in [2] stood at 80 nM. The “half-life in human blood serum” value in [3] was 12.7 h. Further, in data set [9], the “activity at P2Y2R, in words” value was “inactivity”. Also, the “Compound-induced activation of [Ca2+], P2Y2, response class” value in data set [9] (setting [12]) is on record as “nr”. In addition, the degradation by ecto-nucleotidases result in data set [5] is “no degradation”. Moreover, the “Compound-induced activation of [Ca2+], P2Y4, response class” value in [10] was “nr”.

The compound `CSc1nc(N)c2ncn([C@@H]3O[C@H](COP(=O)(O)OP(=O)(O)O)[C@@H](O)[C@H]3O)c2n1` [Compound 2-MeS-ADP, 2-MeS-ADP, reference compound] displayed a fraction ionized in data set [7] of 91%.

Take `B[P@](=O)(OC[C@H]1O[C@@H](n2cnc3c(N)nc(SC)nc32)[C@H](O)[C@@H]1O)OP(=O)(O)CP(=O)(O)O` [Compound 4A, 2MeS-adenosine-β,γ-CH2-5′-O-(1-boranotriphosphate)]: the “activities at the P2YRs tested” value in data set [2] was “insignificant activities”. In addition, the “activity at P2Y2R, in words” value in data set [9] is “inactivity”.

For the compound `B[P@](=O)(OC[C@H]1O[C@@H](n2cnc3c(N)nc(SC)nc32)[C@H](O)[C@@H]1O)OP(=O)(O)CP(=O)(O)O` [Compound 4B, 2MeS-adenosine-β,γ-CH2-5′-O-(1-boranotriphosphate)], in data set [8] (setting [11]), the “Compound-induced activation of [Ca2+], P2Y6, response class” value is “sr”. The “agonistic effect on P2Y6R” value in data set [8] was “slight agonistic effect”. Moreover, the EC50 in [2] was 17200 nM. In addition, in data set [9] (setting [12]), the “Compound-induced activation of [Ca2+], P2Y2, response class” value is “nr”. The “half-life in human blood serum” value in data set [6] is 71.9 h. Besides, the “Compound-induced activation of [Ca2+], P2Y4, response class” value in [10] is recorded as “nr”.

`CSc1nc(N)c2ncn([C@@H]3O[C@H](COP(=O)(O)C(Cl)(Cl)P(=O)(O)O)[C@@H](O)[C@H]3O)c2n1` [Compound 17, 2-MeS-adenosine-5′-dichloromethylene-diphosphate]: the EC50 in data set [2] is 3100 nM. The “pKa value of the terminal phosphonate” value in data set [4] is recorded as “about 6.7”.

For `CSc1nc(N)c2ncn([C@@H]3O[C@H](COP(=O)(O)C(F)(F)P(=O)(O)O)[C@@H](O)[C@H]3O)c2n1` [Compound 18, 2-MeS-adenosine-5′-difluoromethylene-diphosphate], the EC50 in data set [2] was determined as 980 nM. Besides, the “pKa value of the terminal phosphonate” value in data set [4] is listed as “about 6.7”.

On to `O=c1ccn([C@@H]2O[C@H](COP(=O)(O)OP(=O)(O)O)[C@@H](O)[C@H]2O)c(=O)[nH]1` [UDP, reference compound], for which the half-maximal effective concentration (EC50) in data set [8] (1321N1 cells expressing rat P2Y6, read-out: Compound-induced activation of [Ca2+] EC50, P2Y6) worked out at 200 ± 60 nM.

Turning to `O=c1ccn([C@@H]2O[C@H](COP(=O)(O)OP(=O)(O)OP(=O)(O)O)[C@@H](O)[C@H]2O)c(=O)[nH]1` [UTP, reference compound], the EC50 amounted to 640 ± 250 nM in data set [9] (1321N1 cells expressing human P2Y2, read-out: Compound-induced activation of [Ca2+] EC50, P2Y2) and 480 ± 310 nM in [10] (read-out: Compound-induced activation of [Ca2+] EC50, P2Y4).

As for `Nc1ncnc2c1ncn2[C@@H]1O[C@H](COP(=O)(O)OP(=O)(O)CP(=O)(O)O)[C@@H](O)[C@H]1O` [β,γ-CH2-ATP], the degradation by ecto-nucleotidases result in data set [5] is “no degradation”.

For orientation: EC50 means the concentration needed to bring the measured effect to its halfway point.
